According to patent publication US9889150B2, “Agents for the prevention and/or treatment of central nervous system damage” (The University Of Liverpool, priority 2012, dated 2018):
Values joined by “and” are separate entries in the source; they are usually repeats but may differ in a detail not shown here. Equal entries are not always repeated. “Also recorded” adds a separate entry of the source. Where two headings read alike, the source gives them in different places.

Legend:
OECs and astrocytes [1] = conditions: previous work; cited from earlier work
FGFR3 = FGFR3 (Homo sapiens, UniProt P22607); conditions: cited from earlier work
Sequence of FGFR3 (P22607 23-806, species assumed): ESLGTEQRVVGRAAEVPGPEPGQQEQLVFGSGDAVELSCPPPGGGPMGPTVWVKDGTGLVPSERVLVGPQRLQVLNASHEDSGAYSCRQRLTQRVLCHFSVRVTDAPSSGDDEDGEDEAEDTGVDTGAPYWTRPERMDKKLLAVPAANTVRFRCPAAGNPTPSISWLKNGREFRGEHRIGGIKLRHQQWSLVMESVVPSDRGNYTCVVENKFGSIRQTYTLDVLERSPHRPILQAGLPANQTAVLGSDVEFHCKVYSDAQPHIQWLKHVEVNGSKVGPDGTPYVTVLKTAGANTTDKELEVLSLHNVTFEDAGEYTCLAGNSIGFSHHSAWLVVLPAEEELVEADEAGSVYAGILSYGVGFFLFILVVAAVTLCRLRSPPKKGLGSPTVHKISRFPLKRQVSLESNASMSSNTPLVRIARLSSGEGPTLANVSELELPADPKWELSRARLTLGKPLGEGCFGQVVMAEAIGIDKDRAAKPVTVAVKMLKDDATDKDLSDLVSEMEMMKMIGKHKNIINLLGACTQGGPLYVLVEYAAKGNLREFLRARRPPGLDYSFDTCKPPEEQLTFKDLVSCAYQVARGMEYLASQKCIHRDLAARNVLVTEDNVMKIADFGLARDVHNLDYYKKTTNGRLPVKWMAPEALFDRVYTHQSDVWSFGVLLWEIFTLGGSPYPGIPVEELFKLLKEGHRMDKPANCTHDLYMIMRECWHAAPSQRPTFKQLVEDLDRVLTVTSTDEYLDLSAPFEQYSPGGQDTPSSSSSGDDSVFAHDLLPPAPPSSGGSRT

Factor Xa (Homo sapiens) [2] = molecular target: T1, Factor Xa (Homo sapiens); assay: Factor Xa colorimetric substrate assay with antithrombin III; type: biochemical; conditions: tested up to 100 ug/ml
T1 construct: purchased Chromogenix
T1 sequence (P01008 33-464): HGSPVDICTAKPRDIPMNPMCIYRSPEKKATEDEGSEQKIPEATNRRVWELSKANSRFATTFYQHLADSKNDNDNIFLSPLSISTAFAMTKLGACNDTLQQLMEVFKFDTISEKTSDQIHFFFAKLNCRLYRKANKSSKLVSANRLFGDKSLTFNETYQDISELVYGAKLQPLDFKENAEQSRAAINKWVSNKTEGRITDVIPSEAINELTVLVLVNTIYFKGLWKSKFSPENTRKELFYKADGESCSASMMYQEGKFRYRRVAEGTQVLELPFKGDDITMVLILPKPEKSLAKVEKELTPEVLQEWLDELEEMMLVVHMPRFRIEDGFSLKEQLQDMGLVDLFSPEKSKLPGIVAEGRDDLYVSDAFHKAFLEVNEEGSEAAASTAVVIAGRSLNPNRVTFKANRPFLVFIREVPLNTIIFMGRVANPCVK
Procedure: (§1) Factor Xa and Factor II activity was measured using a colorimetric substrate assay as previously described^17. Briefly, in a 96 well ELISA plate, antithrombin III (American Diagnostica, 30 mIU/ml final concentration) was incubated with heparin or polysaccharide fractions in 0.9% NaCl at 37° C. for 2 minutes. Factor IIa (Sigma, 15 mU/ml final concentration) or Factor Xa (Thermo Scientific, 15 mU/ml final concentration) was added and the samples incubated for a further 1 minute at 37° C. Factor Xa Chromogenic substrate (Sigma, 240 uM final concentration) was added to the samples and incubated for 10 minutes at 37° C. The reaction was stopped with glacial acetic acid (Sigma, 25% final concentration). Colour change of the substrate was measured at 405 nm.
(§2) For all assays, heparins and polysaccharides were tested up to 100 ug/ml.

Factor IIa = molecular target: T2, Factor IIa (Homo sapiens, UniProt P00734+P01008); assay: Factor IIa colorimetric substrate assay with antithrombin III; type: biochemical; conditions: tested up to 100 ug/ml
T2 construct: Factor IIa (Sigma, 15 mU/ml final concentration); purchased Sigma (Factor IIa); American Diagnostica (antithrombin III)
Procedure: as §1, §2

OECs and astrocytes [3] = assay: OEC:astrocyte confrontation assay (boundary formation); type: cell-based, Sprague-Dawley rat; set-up: key to graded score of boundary formation: mingling (−); partial boundary (+/−); complete boundary (++); conditions: 2 days of treatment
Procedure: All primary neural cultures were generated from Sprague-Dawley rat pups of either sex. As described previously^10,37, purified type 1 astrocytes were prepared by digesting cortices (dissected from 1-day old Sprague Dawley (SD) rats) in 1.33% (w/v) collagenase (Sigma-Aldrich, Gillingham, UK), seeding (˜2×10^7 cells per 75 cm^2 flask) and culturing the cells in poly-L-lysine (PLL, 13.3 μg/ml, Sigma-Aldrich, Gillingham, UK) coated 75 cm2 flasks for 10-12 days. The cells were maintained in DMEM (Invitrogen, Paisley, Scotland) supplemented with 10% (v/v) foetal bovine serum (FBS) (Sigma-Aldrich, Gillingham, UK) and L-glutamine (2 mM, Sigma-Aldrich, Gillingham, UK) (DMEM-FBS). Confluent flasks were shaken on a rotary platform overnight at 37° C. to remove contaminating oligodendrocyte precursor cells. The remaining cells were 85-95% type 1 astrocytes as identified by labelling for glial fibrillary acidic protein (GFAP), an astrocyte cell specific marker.
OECs were isolated from the olfactory bulb of 7 day old SD rat pups and purified using magnetic nanoparticles (STEMCELL Technologies, UK) pre-bound with the p75^NTR antibody (mouse IgG1, Abcam, Cambridge, UK)^30. The cells were grown in low glucose DMEM with 5% (v/v) FBS and 2 mM L-glutamine and further supplemented with DMEM-BS (Bottenstein, 1979), FGF2 (25 ng/ml, Peprotech, London UK), heregulin β-1 (50 ng/ml, R&D Systems, Oxon, UK), forskolin (5×10^-7 M Sigma-Aldrich, Gillingham, UK) and astrocyte conditioned media (ACM) (1:5, fresh serum-free media taken after incubation with a confluent astrocyte monolayer for 48 h)^18, 37.
Confrontation assays were performed as described by Wilby et al. (1999) and Lakatos et al. (2000) with some modifications^10,48. Briefly, 70 μl containing 10,000 OECs or SCs were seeded into one well of a silicon Ibidi culture insert on a PLL-coated glass coverslip (Ibidi GmbH, Munich, Germany). Into the opposing, parallel well, 10,000 astrocytes were seeded. Cells were allowed to attach for 1 h before careful removal of the insert followed by a wash with DMEM-FBS to remove unattached cells. Cultures were maintained in DMEM-FBS and allowed to grow towards each other over a period of 5-7 days, allowing time for cells to make contact and interact^10. In some experiments, modified heparins or blocking antibodies were added to the cultures after the cells had contacted each other. Cultures were then immunolabelled using anti-GFAP for astrocytes (1:500; anti-rabbit (Dako, Ely, UK)) and anti-p75NTR for OECs and SCs (1:1; IgG1; hybridoma supernatant^49. Fluorescent images were captured using an Olympus BX51 fluorescent microscope and Image-Pro software. Using Adobe Photoshop Elements 7.0, a 300 μm line was drawn along the interface between astrocytes and either OECs or SCs. The numbers of OECs or SCs crossing the cell:cell boundary were counted and averaged over five randomly chosen fields. Experiments were repeated at least three times.
Modified heparins were produced semisynthetically by chemical modification (selective desulfation) of heparin as described in Example 1. These structurally distinct, model “HS-mimetic” polysaccharides^50 are useful tools for investigating structure-activity relationships of HS^15-17,31. Heparins were added to confrontation assays at 10 μg/ml at the stage when cells made contact (day 0) and treatment was repeated on day 2. Cultures were fixed and stained as described above on day 3. […]
Purified OECs were seeded at a density of 5000 cells/100 μl into one chamber of an Ibidi culture insert (Ibidi GmbH, Munich, Germany) sealed onto a PLL coated coverslip in a well of a 24-well plate. Cells were cultured in defined OEC medium for 24 h, after which, the medium was replaced with low serum (2% (v/v) FBS) OEC medium containing 1 μM siRNA. siRNA sequences were obtained from Dharmacon/Thermo Scientific (Sulf 1: E-093746-00-0005; Sulf2: E-093673-00-0005; non-targeting: D-001910-01-05; Thermo Fisher Scientific Inc, IL, USA). […]

normal human plasma [4] = assay: APTT assay; type: biochemical; conditions: tested up to 100 ug/ml
Procedure: (§3) APTT and PT assays were performed using a Axis Shield Thrombotrack 1 instrument using normal human plasma, Pathrombin SL reagent and Thromborel S (all from Axis Shield) reagents according to manufacturers instructions.
as §2

normal human plasma [5] = assay: PT assay; type: biochemical; conditions: tested up to 100 ug/ml
Procedure: as §3, §2

[6] = Celsus Labs lot PH-42800; cited from earlier work
Factor Xa (Homo sapiens) [7] = test system: T1, Factor Xa (Homo sapiens); assay: Anti-factor Xa activity against PIMH standard, Coatest Heparin test kit; type: biochemical; conditions: compared with standard heparin (HEP1)
Procedure: Anti Factor Xa activity can be measured against a PIMH standard of known activity (Sigma, UK) using a diagnostic grade Coatest Heparin test kit (Chromogenix, MA), adapted to a 96-well plate format, reading A405 (Polarstar plate reader (BMG LabTechnologies, U.K.))^17.
The anti-factor Xa activity was measured against a PIMH standard of known activity using a diagnostic grade Coatest Heparin test kit (Chromogenix, MA), adapted to a 96-well plate format, reading A405.

Cc1c[nH]c(/C=C2\C(=O)Nc3ccccc32)c1CCC(=O)O [SU5402]
SCM-induced boundary formation in OEC/astrocyte cultures (OECs and astrocytes [1]): disrupts SCM-induced boundary formation | inhibition of FGFR3 (FGFR3): effectively inhibit FGFR3

Heparin [reference compound]
IC50 Factor Xa (Factor Xa (Homo sapiens) [2]): 0.9 µg/mL and 0.9295 µg/mL | boundary formation between OECs and astrocytes (OECs and astrocytes [1]): induce a boundary between OECs and astrocytes | IC50 Factor IIa (Factor IIa): 1.0 µg/mL and 1.0326 µg/mL | graded score of boundary formation (OECs and astrocytes [3]; 10 μg/ml): ++ | IC50 APTT (normal human plasma [4]): 1.2 µg/mL and 1.2461 µg/mL | IC50 PT (normal human plasma [5]): 41.4 µg/mL and 41.4005 µg/mL

PIMH [HEP1, reference compound]
boundary formation between OECs and astrocytes (OECs and astrocytes [3]; modified heparins 10 μg/ml): induced boundaries between OECs and astrocytes; also recorded: induced the strongest boundaries | anticoagulant activity [6]: 201 IU/mg | Anticoagulant activity (anti-Xa activity) (Factor Xa (Homo sapiens) [7]): 100%
